Assay results taken from patent EP2272817A1, “PAI-1 INHIBITOR” (Institute of Medicinal Molecular Design, Inc., priority 2008, dated 2009).
Where two headings read alike, the source gives them in different places.

How the values were obtained:
recombinant rat PAI-1 = target: T1, recombinant rat PAI-1 (Rattus norvegicus, UniProt P20961); experiment: biochemical; settings: read-out: Inhibition Rate of PAI-1 Activity (%)
T1 sequence (P20961 24-402): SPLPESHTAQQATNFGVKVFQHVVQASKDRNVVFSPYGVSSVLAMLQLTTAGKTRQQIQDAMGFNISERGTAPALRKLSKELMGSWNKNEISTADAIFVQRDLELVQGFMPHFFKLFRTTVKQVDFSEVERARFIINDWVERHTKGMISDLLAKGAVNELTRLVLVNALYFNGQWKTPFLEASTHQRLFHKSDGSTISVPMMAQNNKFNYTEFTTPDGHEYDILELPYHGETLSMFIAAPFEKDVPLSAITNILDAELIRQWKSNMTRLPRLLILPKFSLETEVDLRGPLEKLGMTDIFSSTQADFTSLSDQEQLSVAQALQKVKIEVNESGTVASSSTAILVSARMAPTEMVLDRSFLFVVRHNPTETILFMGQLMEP

recombinant human PAI-1 [1] = target: T2, recombinant human PAI-1 (Homo sapiens, UniProt P05121); experiment: Test Example 2: Human PAI-1 Inhibitory Activity (pH 7.4 HEPES buffer, 10 minutes incubation with two-chain tPA); type: biochemical; design: purchased Molecular Innovations, Inc; settings: read-out: Inhibition Rate of PAI-1 Activity (%)
T2 sequence (P05121 24-402): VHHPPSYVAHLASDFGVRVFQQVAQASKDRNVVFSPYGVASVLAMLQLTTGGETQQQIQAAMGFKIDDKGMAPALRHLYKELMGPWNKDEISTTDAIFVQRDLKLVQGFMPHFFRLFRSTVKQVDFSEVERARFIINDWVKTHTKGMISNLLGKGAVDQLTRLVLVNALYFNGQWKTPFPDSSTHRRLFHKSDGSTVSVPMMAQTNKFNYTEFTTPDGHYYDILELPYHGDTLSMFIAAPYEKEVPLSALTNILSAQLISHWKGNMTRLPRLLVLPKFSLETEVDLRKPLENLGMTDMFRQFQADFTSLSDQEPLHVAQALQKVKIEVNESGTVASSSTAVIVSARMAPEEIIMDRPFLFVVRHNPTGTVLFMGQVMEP
Method: 0.1 M HEPES, 0.1 M NaCl. 1 mM EDTA. 0.1 % Polyethylene glycol 8,000 (Hampton Research Corporation),
2 mM Dimethyldecylphoshine oxide [Apo-10] (Fluka Corporation)

recombinant human PAI-1 [2] = target: T2, recombinant human PAI-1; experiment: biochemical
Method: To this solution, 6 µl of 80 nM recombinant human PAI-1 (Molecular Innovations, Inc.) solution prepared with Tris buffer was added, and the plate was incubated for 5 minutes at room temperature. Furthermore, 30 µl of 800 IU/ml two-chain tPA (Activity Standard; American diagnostica, inc.) prepared with Tris buffer was added, and the mixed solution was incubated for 15 minutes at room temperature. Then, 30 µl of 400 µM fluorogenic substrate (Pyr-Gly-Arg-MCA; Peptide Institute, Inc.) for tPA prepared with Tris buffer was added and reacted for 30 minutes at room temperature.
50 mM Tris, 150 mM NaCl, 10 µg/ml BSA, 0.01 % Tween80 (SIGMA-ALDRICH Corporation)

[3] = read-out: Inhibition Rate of PAI-1 Activity (%), Compound Concentration 5µM
[4] = read-out: Inhibition Rate of PAI-1 Activity (%), Compound Concentration 10µM
[5] = read-out: Inhibition Rate of PAI-1 Activity (%), Compound Concentration 25µM
[6] = read-out: Inhibition Rate of PAI-1 Activity (%)
[7] = read-out: Inhibition Rate of PAI Activity (%)

SMILES | inhibition at 5 µM (recombinant human PAI-1 [2]; [6]) | inhibition at 10 µM (recombinant human PAI-1 [2]; [6]) | inhibition at 25 µM (recombinant human PAI-1 [2]; [6]) | also measured
CC(C)c1ccc(Oc2ccc(CCC(=O)O)c(Oc3ccc(C(C)C)cc3)c2)cc1 [Compound 73] |  |  |  | inhibition at 0.3 µM (recombinant rat PAI-1): 0%; inhibition at 1 µM (recombinant rat PAI-1): 13%; inhibition at 3 µM (recombinant rat PAI-1): 75%; inhibition at 10 µM (recombinant rat PAI-1): 98%; inhibition at 0.1 µM (recombinant human PAI-1 [1]): 0%; inhibition at 0.3 µM (recombinant human PAI-1 [1]): 6%; inhibition at 1 µM (recombinant human PAI-1 [1]): 27%; inhibition at 3 µM (recombinant human PAI-1 [1]): 98%; inhibition at 5 µM (recombinant human PAI-1 [2]; [3]): 30%; inhibition at 10 µM (recombinant human PAI-1 [2]; [4]): 66%; inhibition at 25 µM (recombinant human PAI-1 [2]; [5]): > 99%
CC(C)(C)c1ccc(Oc2cccc(-c3ccc(OC(F)(F)F)cc3)c2CCC(=O)O)cc1 [Compound 94] |  |  |  | inhibition at 0.3 µM (recombinant rat PAI-1): 0%; inhibition at 1 µM (recombinant rat PAI-1): 15%; inhibition at 3 µM (recombinant rat PAI-1): 45%; inhibition at 10 µM (recombinant rat PAI-1): 91%; inhibition at 0.1 µM (recombinant human PAI-1 [1]): 0%; inhibition at 0.3 µM (recombinant human PAI-1 [1]): 3%; inhibition at 1 µM (recombinant human PAI-1 [1]): 24%; inhibition at 3 µM (recombinant human PAI-1 [1]): 96%; inhibition at 5 µM (recombinant human PAI-1 [2]; [3]): 56%; inhibition at 10 µM (recombinant human PAI-1 [2]; [4]): 90%; inhibition at 25 µM (recombinant human PAI-1 [2]; [5]): 97%
CCCOc1ccc(-c2ccc(OC(F)(F)F)cc2)cc1N(Cc1ccc(C(C)(C)C)cc1)C(=O)C(=O)O [Compound 188] |  |  |  | inhibition at 0.3 µM (recombinant rat PAI-1): 0%; inhibition at 1 µM (recombinant rat PAI-1): 14%; inhibition at 3 µM (recombinant rat PAI-1): 84%; inhibition at 10 µM (recombinant rat PAI-1): > 99%; inhibition at 0.1 µM (recombinant human PAI-1 [1]): 0%; inhibition at 0.3 µM (recombinant human PAI-1 [1]): 0%; inhibition at 1 µM (recombinant human PAI-1 [1]): 33%; inhibition at 3 µM (recombinant human PAI-1 [1]): 97%; inhibition at 5 µM (recombinant human PAI-1 [2]; [3]): 73%; inhibition at 10 µM (recombinant human PAI-1 [2]; [4]): 91%; inhibition at 25 µM (recombinant human PAI-1 [2]; [5]): 91%
CC(C)(C)c1ccc(COc2cccc(Oc3ccc(OC(F)(F)F)cc3)c2CCC(=O)O)cc1 [Compound 86] |  |  |  | inhibition at 0.3 µM (recombinant rat PAI-1): 0%; inhibition at 1 µM (recombinant rat PAI-1): 12%; inhibition at 3 µM (recombinant rat PAI-1): 34%; inhibition at 10 µM (recombinant rat PAI-1): 69%; inhibition at 0.1 µM (recombinant human PAI-1 [1]): 0%; inhibition at 0.3 µM (recombinant human PAI-1 [1]): 0%; inhibition at 1 µM (recombinant human PAI-1 [1]): 22%; inhibition at 3 µM (recombinant human PAI-1 [1]): 87%; inhibition at 5 µM (recombinant human PAI-1 [2]; [3]): 47%; inhibition at 10 µM (recombinant human PAI-1 [2]; [4]): 80%; inhibition at 25 µM (recombinant human PAI-1 [2]; [5]): 98%
CC(C)(C)c1ccc(COc2cc(-c3ccc(OC(F)(F)F)cc3)ccc2CCC(=O)O)cc1 [Compound 76] | 24% | 54% | 98% | inhibition at 0.3 µM (recombinant rat PAI-1): 0%; inhibition at 1 µM (recombinant rat PAI-1): 6%; inhibition at 3 µM (recombinant rat PAI-1): 56%; inhibition at 10 µM (recombinant rat PAI-1): 86%; inhibition at 0.1 µM (recombinant human PAI-1 [1]): 10%; inhibition at 0.3 µM (recombinant human PAI-1 [1]): 12%; inhibition at 1 µM (recombinant human PAI-1 [1]): 37%; inhibition at 3 µM (recombinant human PAI-1 [1]): 99%
CC(C)(Oc1c(Oc2ccc(C(C)(C)C)cc2)cccc1-c1ccc(OC(F)(F)F)cc1)C(=O)O [Compound 251] |  |  |  | inhibition at 0.1 µM (recombinant human PAI-1 [1]): 0%; inhibition at 0.3 µM (recombinant human PAI-1 [1]): 11%; inhibition at 1 µM (recombinant human PAI-1 [1]): 34%; inhibition at 3 µM (recombinant human PAI-1 [1]): 83%; inhibition at 5 µM (recombinant human PAI-1 [2]; [3]): 62%; inhibition at 10 µM (recombinant human PAI-1 [2]; [4]): 63%
CC(C)(C)c1ccc(COc2ccc(Oc3ccc(OC(F)(F)F)cc3)cc2CCC(=O)O)cc1 [Compound 96] |  |  |  | inhibition at 0.3 µM (recombinant rat PAI-1): 3%; inhibition at 1 µM (recombinant rat PAI-1): 14%; inhibition at 3 µM (recombinant rat PAI-1): 49%; inhibition at 10 µM (recombinant rat PAI-1): 96%; inhibition at 0.1 µM (recombinant human PAI-1 [1]): 6%; inhibition at 0.3 µM (recombinant human PAI-1 [1]): 7%; inhibition at 1 µM (recombinant human PAI-1 [1]): 26%; inhibition at 3 µM (recombinant human PAI-1 [1]): 96%; inhibition at 5 µM (recombinant human PAI-1 [2]; [3]): 36%; inhibition at 10 µM (recombinant human PAI-1 [2]; [4]): 75%; inhibition at 25 µM (recombinant human PAI-1 [2]; [5]): 99%
Cc1ccc(-c2ccccc2)cc1N(Cc1ccc(C(C)(C)C)cc1)C(=O)C(=O)O [Compound 137] |  | 5% | 61% | 
CC(C)Oc1ccc(N(CCCCc2ccccc2)C(=O)C(=O)O)cc1-c1ccc(OC(F)(F)F)cc1 [Compound 248] | 60% | 89% | 96% | 
CSc1ccc(-c2ccc(N(Cc3ccc(C(C)(C)C)cc3)C(=O)C(=O)O)cc2)cc1 [Compound 134] |  | 14% | 75% | 
CC(C)(C)c1ccc(N(C(=O)C(=O)O)c2ccccc2-c2ccc(OC(F)(F)F)cc2)cc1 [Compound 157] | 25% | 56% | 96% | 
CC(C)Oc1ccc(N(Cc2ccc(C(C)(C)C)cc2)C(=O)C(=O)O)c(-c2ccc(OC(F)(F)F)cc2)c1 [Compound 209] | 81% | 98% | 94% | 
CN(C(=O)C(=O)O)c1ccc(OCc2ccc(OC(F)(F)F)cc2)c(OCc2ccc(OC(F)(F)F)cc2)c1 [Compound 623] | 22% | 41% | 87% | 
O=C(O)CCc1cc(-c2ccc(OC(F)(F)F)cc2)ccc1OCCCOc1ccccc1 [Compound 103] | 33% | 57% | 89% | 
CC(C)(C)c1ccc(CN(C(=O)C(=O)O)c2ccc(-c3ccc(OC(F)(F)F)cc3)cc2C(F)(F)F)cc1 [Compound 150] | 33% | 75% | 87% | 
CC(C)(C)c1ccc(Oc2cc(-c3ccc(OC(F)(F)F)cc3)ccc2OC(F)(F)C(=O)O)cc1 [Compound 120] | 59% | 87% | 98% | 
Cc1cc(N(Cc2ccc(C(C)(C)C)cc2)C(=O)C(=O)O)ccc1-c1ccc(OC(F)(F)F)cc1 [Compound 184] | 59% | 86% | 85% | 
CC(C)(C)c1ccc(CN(C(=O)C(=O)O)c2ccc(N3CCCCC3=O)c(-c3ccc(OC(F)(F)F)cc3)c2)cc1 [Compound 219] | 33% | 58% | 86% | 
CC(C)(C)c1ccc(CN(C(=O)C(=O)O)c2c(Cl)cc(-c3ccc(OC(F)(F)F)cc3)cc2Cl)cc1 [Compound 173] | 63% | 95% | 90% | 

SMILES | inhibition at 5 µM (recombinant human PAI-1 [2]; [6]) | inhibition at 10 µM (recombinant human PAI-1 [2]; [6]) | inhibition at 25 µM (recombinant human PAI-1 [2]; [6]) | also measured
COc1cc(-c2ccc(OC(F)(F)F)cc2)cc(/C=C/C(=O)O)c1OCc1ccc(C(C)(C)C)cc1 [Compound 81] | 28% | 63% | 70% | 
CC(C)(C)c1ccc(CN(C(=O)C(=O)O)c2ccc(-c3ccc(Cl)cc3)cc2)cc1 [Compound 135] |  | 6% | 67% | 
O=C(O)CCc1cc(-c2ccc(OC(F)(F)F)cc2)ccc1OCc1ccccc1C(F)(F)F [Compound 21] |  |  |  | inhibition at 10 µM (recombinant human PAI-1 [2]; [7]): 11%; inhibition at 25 µM (recombinant human PAI-1 [2]; [7]): 70%
CC(C)(C)c1ccc(Oc2cc(Oc3ccc(OC(F)(F)F)cc3)ccc2/C=C/C(=O)O)cc1 [Compound 89] | 46% | 87% | 95% | 
CC(C)(C)c1ccc(CN(C(=O)C(=O)O)c2ccc(OCc3ccc(OC(F)(F)F)cc3)c(OCc3ccc(OC(F)(F)F)cc3)c2)cc1 [Compound 622] | 44% | 72% | 88% | 
Cc1ccc(-c2ccc(N(Cc3ccc(C(C)(C)C)cc3)C(=O)C(=O)O)cc2)cc1 [Compound 141] |  | 5% | 52% | 
COc1ccc(-c2ccc(N(Cc3ccc(C(C)(C)C)cc3)C(=O)C(=O)O)cc2)cc1 [Compound 126] | 16% | 43% |  | 
CC(C)(C)c1ccc(CN(C(=O)C(=O)O)c2ccc(C(F)(F)F)cc2-c2ccc(OC(F)(F)F)cc2)cc1 [Compound 169] | 59% | 91% | 84% | 
CC(C)(C)c1ccc(COc2c(/C=C/C(=O)O)cccc2-c2ccc(OC(F)(F)F)cc2)cc1 [Compound 87] | 44% | 81% | 96% | 
CC(C)(C)c1ccc(Oc2cccc(-c3ccc(OC(F)(F)F)cc3)c2/C=C/C(=O)O)cc1 [Compound 93] | 51% | 87% | 94% | 
O=C(O)C(=O)N(Cc1ccc(F)cc1)c1ccc(-c2ccc(OC(F)(F)F)cc2)cc1 [Compound 155] | 7% | 15% | 38% | 
CCC(CC)Oc1ccc(N(CCCc2ccccc2)C(=O)C(=O)O)c(-c2ccc(OC(F)(F)F)cc2)c1 [Compound 237] | 75% | 92% |  | 
CCCCOc1ccc(-c2ccc(OC(F)(F)F)cc2)cc1N(CCCc1ccccc1)C(=O)C(=O)O [Compound 235] | 66% | 89% | 93% | 
CC(C)(C)c1ccc(COc2cc(Oc3ccc(OC(F)(F)F)cc3)ccc2/C=C/C(=O)O)cc1 [Compound 77] | 27% | 51% | 73% | 
O=C(O)CCc1cc(-c2ccc(OC(F)(F)F)cc2)ccc1OCCCc1ccccc1 [Compound 101] | 42% | 73% | > 99% | 
O=C(O)C(=O)N(CCc1ccccc1)c1ccc(-c2ccc(OC(F)(F)F)cc2)cc1 [Compound 223] | 13% | 27% |  | 
CC(C)(C)c1ccc(N(C(=O)C(=O)O)c2ccc(Oc3ccc(OC(F)(F)F)cc3)cc2)cc1 [Compound 165] | 27% | 64% | 96% | 
O=C(O)CCc1cc(-c2ccc(OC(F)(F)F)cc2)ccc1OCc1cccc(C(F)(F)F)c1 [Compound 58] |  |  |  | inhibition at 5 µM (recombinant human PAI-1 [2]; [7]): 22%; inhibition at 10 µM (recombinant human PAI-1 [2]; [7]): 53%; inhibition at 25 µM (recombinant human PAI-1 [2]; [7]): 97%
